Results from ChEMBL document CHEMBL5465560, “Selectivity Literature for EUbOPEN Chemogenomic Library” (2024).

Legend:
[1] = target: Cyclin-dependent kinase 19 (Homo sapiens) (UniProt Q9BWU1); test: Selectivity interaction (KinomeScan (DiscoverX)) EUB0001049a CDK19; conditions: at 1 µM
[2] = target: cAMP-dependent protein kinase catalytic subunit alpha (Homo sapiens, UniProt P17612); test: Selectivity interaction (KinomeScan (DiscoverX)) EUB0000229b PRKACA; conditions: at 10 µM
[3] = target: Proto-oncogene tyrosine-protein kinase Src (Homo sapiens, UniProt P12931); test: Selectivity interaction (KinomeScan (DiscoverX)) EUB0001079a SRC; conditions: at 1 µM
[4] = target: T1, MAP/microtubule affinity-regulating kinase 4 (Homo sapiens) (UniProt Q96L34); test: Selectivity interaction (ActivX KiNativ screen (kinase selectivity in THP-1 cell lysates)) EUB0000639a MARK4; type: subcellular; conditions: lysate, at 0.04 µM
T1 sequence (whole entry): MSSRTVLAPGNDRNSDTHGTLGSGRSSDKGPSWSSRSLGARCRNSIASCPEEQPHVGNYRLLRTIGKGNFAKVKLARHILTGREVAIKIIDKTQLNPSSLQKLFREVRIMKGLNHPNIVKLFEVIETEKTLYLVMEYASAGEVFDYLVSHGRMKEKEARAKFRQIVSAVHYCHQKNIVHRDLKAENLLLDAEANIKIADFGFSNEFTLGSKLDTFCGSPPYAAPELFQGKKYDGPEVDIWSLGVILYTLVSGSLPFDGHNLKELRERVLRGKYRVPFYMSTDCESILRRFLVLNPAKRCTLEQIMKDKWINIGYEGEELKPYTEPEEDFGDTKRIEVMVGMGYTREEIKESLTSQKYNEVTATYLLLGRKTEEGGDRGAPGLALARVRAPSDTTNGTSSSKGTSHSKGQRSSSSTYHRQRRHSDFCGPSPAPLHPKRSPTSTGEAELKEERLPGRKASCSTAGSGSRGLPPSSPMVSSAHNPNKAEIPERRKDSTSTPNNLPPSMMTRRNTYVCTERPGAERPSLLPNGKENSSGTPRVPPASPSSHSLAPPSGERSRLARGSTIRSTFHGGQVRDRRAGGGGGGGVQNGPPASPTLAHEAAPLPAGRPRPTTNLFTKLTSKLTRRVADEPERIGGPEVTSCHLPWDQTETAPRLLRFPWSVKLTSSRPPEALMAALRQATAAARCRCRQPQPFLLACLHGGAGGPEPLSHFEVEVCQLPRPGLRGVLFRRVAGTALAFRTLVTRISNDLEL

[5] = target: T2, Tyrosine-protein kinase ZAP-70 (Homo sapiens) (UniProt P43403); test: Selectivity interaction (KinomeScan (DiscoverX)) EUB0000595a ZAP70; conditions: at 10 µM
T2 sequence (whole entry): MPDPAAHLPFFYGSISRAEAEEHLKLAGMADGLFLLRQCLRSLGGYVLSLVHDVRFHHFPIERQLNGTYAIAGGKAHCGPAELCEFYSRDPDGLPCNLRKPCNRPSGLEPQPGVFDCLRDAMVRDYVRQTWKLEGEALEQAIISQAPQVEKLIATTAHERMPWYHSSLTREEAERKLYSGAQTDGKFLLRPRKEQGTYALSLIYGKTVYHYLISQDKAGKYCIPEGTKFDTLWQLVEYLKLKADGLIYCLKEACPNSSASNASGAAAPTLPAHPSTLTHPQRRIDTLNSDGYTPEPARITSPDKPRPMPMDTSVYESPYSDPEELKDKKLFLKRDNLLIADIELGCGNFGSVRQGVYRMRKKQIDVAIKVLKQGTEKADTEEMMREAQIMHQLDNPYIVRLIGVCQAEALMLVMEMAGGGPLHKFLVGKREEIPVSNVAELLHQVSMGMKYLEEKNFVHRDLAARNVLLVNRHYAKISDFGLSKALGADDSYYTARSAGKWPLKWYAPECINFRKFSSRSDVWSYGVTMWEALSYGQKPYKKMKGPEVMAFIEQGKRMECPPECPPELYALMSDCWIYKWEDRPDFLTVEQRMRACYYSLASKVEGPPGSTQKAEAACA

[6] = target: Mitogen-activated protein kinase 7 (Homo sapiens) (UniProt Q13164); test: Selectivity interaction (Ambit KINOMEscan and KiNATiv profiling in Jurkat cells) EUB0000090b MAPK7; type: cell-based; conditions: at 1 µM
[7] = target: Serine/threonine-protein kinase Nek4 (Homo sapiens) (UniProt P51957); conditions: at 10 µM
[8] = target: Mitogen-activated protein kinase 1 (Homo sapiens, UniProt P28482); test: Selectivity interaction (KinomeScan (DiscoverX)) EUB0000655a MAPK1; conditions: at 10 µM
[9] = target: T3, Serine/threonine-protein kinase Nek9 (Homo sapiens) (UniProt Q8TD19); test: Selectivity interaction (KinomeScan (DiscoverX)) EUB0000695a NEK9; conditions: at 100 nM
T3 sequence (whole entry): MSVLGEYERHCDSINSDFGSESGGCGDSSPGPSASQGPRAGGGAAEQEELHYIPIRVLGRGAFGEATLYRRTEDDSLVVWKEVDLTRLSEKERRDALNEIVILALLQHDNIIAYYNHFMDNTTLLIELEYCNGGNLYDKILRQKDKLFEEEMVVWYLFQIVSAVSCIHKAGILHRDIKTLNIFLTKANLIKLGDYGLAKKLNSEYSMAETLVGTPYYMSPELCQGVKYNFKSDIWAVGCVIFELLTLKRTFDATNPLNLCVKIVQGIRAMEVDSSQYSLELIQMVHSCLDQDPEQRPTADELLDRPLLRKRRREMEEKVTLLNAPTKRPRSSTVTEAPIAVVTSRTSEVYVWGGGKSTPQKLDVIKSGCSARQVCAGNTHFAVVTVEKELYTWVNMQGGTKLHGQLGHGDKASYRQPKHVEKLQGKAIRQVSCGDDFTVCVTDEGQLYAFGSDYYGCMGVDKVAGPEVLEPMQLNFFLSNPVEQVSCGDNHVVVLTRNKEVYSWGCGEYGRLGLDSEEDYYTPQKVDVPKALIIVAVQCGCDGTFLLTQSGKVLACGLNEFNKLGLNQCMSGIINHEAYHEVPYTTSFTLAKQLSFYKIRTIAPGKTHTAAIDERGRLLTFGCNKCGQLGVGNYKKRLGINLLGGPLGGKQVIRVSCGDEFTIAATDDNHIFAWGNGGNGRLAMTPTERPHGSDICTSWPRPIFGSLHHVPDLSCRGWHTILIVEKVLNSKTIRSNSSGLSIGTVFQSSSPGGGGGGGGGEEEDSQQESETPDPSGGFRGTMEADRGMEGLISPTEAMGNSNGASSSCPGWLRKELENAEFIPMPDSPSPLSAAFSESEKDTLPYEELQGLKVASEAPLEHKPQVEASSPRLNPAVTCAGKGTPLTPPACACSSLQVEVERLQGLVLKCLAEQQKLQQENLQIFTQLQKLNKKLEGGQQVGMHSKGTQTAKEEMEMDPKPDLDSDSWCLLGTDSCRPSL

[10] = tested on: Fibroblast growth factor receptor 1 (Homo sapiens), P11362 [V561M]; test: Selectivity interaction (LanthaScreen Eu Kinase Binding Assay) EUB0001632a FGFR1; conditions: at 10 µM
Sequence of Fibroblast growth factor receptor 1 (Homo sapiens), P11362 [V561M] (P11362 whole entry V561M): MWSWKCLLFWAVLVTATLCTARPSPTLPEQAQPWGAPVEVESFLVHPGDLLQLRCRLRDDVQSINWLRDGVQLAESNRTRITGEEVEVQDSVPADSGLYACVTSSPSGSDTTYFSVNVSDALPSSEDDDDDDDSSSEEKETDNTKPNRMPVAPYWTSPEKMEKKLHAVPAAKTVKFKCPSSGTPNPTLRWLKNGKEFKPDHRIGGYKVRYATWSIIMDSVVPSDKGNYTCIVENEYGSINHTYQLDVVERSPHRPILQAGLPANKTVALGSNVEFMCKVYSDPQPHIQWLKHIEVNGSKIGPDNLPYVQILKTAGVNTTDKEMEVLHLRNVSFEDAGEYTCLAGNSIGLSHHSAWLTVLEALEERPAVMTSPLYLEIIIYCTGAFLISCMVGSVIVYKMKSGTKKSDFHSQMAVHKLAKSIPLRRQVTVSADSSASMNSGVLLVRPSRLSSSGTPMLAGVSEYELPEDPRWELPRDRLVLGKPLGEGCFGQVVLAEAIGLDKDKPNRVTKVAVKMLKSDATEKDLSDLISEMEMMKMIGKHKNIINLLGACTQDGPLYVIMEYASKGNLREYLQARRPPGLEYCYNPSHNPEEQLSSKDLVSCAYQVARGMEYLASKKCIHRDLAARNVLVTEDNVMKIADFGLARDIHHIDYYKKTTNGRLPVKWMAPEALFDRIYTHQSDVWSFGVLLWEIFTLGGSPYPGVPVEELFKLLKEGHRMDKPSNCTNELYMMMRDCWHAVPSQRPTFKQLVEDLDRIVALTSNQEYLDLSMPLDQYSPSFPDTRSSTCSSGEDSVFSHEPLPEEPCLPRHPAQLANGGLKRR

Sequence of Mitogen-activated protein kinase 7 (Homo sapiens) (Q13164 2-816 limits assumed): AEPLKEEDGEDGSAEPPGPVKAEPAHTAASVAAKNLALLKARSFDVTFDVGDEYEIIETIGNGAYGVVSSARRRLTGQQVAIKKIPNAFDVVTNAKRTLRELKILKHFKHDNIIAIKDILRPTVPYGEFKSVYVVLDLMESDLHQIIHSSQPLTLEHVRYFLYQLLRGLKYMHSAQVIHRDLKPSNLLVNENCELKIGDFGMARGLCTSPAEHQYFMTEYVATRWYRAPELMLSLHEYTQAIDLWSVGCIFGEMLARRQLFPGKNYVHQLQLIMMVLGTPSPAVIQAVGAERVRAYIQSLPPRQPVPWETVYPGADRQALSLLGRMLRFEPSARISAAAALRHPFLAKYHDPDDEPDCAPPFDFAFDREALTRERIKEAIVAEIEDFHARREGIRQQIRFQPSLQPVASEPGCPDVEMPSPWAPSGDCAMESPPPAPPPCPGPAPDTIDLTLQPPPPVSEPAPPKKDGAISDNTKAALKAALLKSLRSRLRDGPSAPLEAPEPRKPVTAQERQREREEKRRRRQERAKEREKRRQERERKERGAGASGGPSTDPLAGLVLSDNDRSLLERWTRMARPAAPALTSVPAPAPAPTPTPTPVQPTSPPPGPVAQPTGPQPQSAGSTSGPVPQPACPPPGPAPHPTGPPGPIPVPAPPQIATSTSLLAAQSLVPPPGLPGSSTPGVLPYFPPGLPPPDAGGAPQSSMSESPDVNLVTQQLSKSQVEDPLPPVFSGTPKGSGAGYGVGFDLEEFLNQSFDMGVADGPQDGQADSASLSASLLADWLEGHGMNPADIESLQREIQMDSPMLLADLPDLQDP
Sequence of Mitogen-activated protein kinase 1 (P28482 whole entry): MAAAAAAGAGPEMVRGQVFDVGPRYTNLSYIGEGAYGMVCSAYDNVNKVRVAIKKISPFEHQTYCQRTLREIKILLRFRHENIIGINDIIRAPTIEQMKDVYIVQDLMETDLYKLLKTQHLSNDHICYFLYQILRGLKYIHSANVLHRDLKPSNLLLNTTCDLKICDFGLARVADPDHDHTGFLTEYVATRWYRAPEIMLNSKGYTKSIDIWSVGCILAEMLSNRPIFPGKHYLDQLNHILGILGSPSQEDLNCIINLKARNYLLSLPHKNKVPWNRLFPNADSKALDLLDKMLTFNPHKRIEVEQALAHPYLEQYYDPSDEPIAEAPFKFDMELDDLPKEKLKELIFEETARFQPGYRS
Sequence of Cyclin-dependent kinase 19 (Homo sapiens) (Q9BWU1 whole entry): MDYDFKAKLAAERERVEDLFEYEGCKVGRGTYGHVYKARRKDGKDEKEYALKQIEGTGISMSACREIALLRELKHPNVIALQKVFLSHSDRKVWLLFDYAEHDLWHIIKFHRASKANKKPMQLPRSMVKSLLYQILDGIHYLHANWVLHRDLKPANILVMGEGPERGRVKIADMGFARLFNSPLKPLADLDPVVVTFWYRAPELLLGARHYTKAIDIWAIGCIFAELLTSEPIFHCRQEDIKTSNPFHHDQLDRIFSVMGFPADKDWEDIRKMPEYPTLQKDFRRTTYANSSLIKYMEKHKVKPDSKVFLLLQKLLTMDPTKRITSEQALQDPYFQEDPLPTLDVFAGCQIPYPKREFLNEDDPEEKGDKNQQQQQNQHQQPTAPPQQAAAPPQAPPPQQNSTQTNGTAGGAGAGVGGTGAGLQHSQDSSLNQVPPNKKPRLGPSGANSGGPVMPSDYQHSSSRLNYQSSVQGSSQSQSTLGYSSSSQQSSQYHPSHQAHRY
Sequence of Proto-oncogene tyrosine-protein kinase Src (P12931 2-536 limits assumed): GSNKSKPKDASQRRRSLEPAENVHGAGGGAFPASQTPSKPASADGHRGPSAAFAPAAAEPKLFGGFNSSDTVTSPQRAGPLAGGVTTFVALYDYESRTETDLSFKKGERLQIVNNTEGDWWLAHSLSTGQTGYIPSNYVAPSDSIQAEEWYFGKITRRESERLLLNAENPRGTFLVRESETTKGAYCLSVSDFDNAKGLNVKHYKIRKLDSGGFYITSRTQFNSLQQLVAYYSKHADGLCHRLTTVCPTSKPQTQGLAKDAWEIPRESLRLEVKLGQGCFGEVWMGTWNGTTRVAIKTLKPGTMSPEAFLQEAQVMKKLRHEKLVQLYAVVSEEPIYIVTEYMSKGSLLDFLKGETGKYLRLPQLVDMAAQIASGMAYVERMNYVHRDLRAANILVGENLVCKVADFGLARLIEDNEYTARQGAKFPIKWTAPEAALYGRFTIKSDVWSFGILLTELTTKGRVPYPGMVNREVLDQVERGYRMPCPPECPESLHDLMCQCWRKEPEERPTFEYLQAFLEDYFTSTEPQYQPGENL
Sequence of Serine/threonine-protein kinase Nek4 (Homo sapiens) (P51957 whole entry, looked up): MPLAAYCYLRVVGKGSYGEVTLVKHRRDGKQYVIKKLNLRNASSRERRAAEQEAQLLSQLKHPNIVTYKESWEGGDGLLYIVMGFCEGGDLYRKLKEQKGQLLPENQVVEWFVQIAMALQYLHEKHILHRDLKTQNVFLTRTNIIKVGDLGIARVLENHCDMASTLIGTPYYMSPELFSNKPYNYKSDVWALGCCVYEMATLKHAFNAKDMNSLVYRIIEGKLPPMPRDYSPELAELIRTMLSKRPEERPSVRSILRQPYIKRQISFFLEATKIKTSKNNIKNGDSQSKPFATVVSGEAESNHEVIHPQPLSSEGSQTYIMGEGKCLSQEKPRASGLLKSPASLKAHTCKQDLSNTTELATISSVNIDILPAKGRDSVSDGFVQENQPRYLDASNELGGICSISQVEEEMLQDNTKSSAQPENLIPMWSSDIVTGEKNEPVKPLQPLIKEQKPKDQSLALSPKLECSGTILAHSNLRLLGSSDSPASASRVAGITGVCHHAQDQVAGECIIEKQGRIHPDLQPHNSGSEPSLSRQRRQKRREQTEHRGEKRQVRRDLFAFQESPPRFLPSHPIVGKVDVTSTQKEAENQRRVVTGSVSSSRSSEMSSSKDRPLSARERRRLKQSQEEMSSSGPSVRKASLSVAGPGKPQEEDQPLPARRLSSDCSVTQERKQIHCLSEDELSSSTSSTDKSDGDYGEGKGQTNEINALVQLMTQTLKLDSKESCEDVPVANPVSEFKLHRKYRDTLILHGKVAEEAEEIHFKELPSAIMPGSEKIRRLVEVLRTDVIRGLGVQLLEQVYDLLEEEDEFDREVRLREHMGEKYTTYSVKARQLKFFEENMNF

COc1cc(Nc2nc(C)cc(-c3cnn4nc(OC)ccc34)n2)cc(C(F)(F)F)c1
% of control [1]: 91%

COc1cc(N(C)c2ccnc3ccc(C(F)(F)F)cc23)cc(OC)c1OC
% binding [2]: 100%

Nc1cnc(N2CCc3cc(S(=O)(=O)Nc4c(F)cc(Cl)cc4F)cc(N4CCCC4=O)c32)nc1 [TP-020n]
% of control [3]: 99%

CC[C@@H]1[C@H](F)C(=O)N[C@@H]1COc1nccc2cc(C(N)=O)c(OC)cc12 [ZIMLOVISERTIB]
% of inhibition [4]: 15.9%

COCC(=O)NC/C=C/c1ccc2ncnc(Nc3ccc(Oc4ccc(C)nc4)c(C)c3)c2c1 [CP-724714]
% of control [5]: 100%

CN(C)C/C=C/C(=O)Nc1ccc(C(=O)N2CCCC(Nc3ncc(Cl)c(-c4c[nH]c5ccccc45)n3)C2)cc1 (stereo not given)
% of control [6]: 88%

Cc1cc([C@@H](C)Nc2ccccc2C(=O)O)c2nc(N3CCOCC3)cc(=O)n2c1 [AZD-6482]
% of control [7]: 61%

CN(C)CCOc1ccc(-c2nc(-c3ccncc3)c(-c3ccc4c(c3)CC/C4=N\O)[nH]2)cc1
% of control [8]: 100%

Cc1cc(F)c(C(=O)Nc2cccc(-c3nncn3C(C)C)n2)cc1-n1cnc(C2CC2)c1
% of control [9]: 100%

Cn1cc(-n2cnc3c(NCc4nc5cc(Cl)c(Cl)cc5[nH]4)nc(N4CCOCC4)nc32)cn1
% of inhibition [10]: -8.96%
